From patent US8735439B2, “Chlorin e6-folic acid conjugate, preparation method thereof, and a pharmaceutical composition for the treatment of cancer comprising the same” (Diatech Korea Co., Ltd., priority 2009, dated 2014)

Biological target: human serum albumin (Homo sapiens, UniProt P02768)
Assay: Pigment-protein complex formation with human serum albumin
Details: HSA, number of binding positions n=1
Text: Pigment-protein complexes have been formed by adding to the solution of human serum albumin (HAS) a specific amount of photosensitizer dissolved in the same buffer. […] Similarly, the photosensitizer was included in detergent micelle (Triton X-100, C=10^−3M).
wherein r and C are the respectively concentrations of bound and unbound protein pigment, r+C=CΣ. […] It is also applicable with respect to pigment molecules included in Triton X-100 micelle.

Sequence of human serum albumin (P02768 25-609): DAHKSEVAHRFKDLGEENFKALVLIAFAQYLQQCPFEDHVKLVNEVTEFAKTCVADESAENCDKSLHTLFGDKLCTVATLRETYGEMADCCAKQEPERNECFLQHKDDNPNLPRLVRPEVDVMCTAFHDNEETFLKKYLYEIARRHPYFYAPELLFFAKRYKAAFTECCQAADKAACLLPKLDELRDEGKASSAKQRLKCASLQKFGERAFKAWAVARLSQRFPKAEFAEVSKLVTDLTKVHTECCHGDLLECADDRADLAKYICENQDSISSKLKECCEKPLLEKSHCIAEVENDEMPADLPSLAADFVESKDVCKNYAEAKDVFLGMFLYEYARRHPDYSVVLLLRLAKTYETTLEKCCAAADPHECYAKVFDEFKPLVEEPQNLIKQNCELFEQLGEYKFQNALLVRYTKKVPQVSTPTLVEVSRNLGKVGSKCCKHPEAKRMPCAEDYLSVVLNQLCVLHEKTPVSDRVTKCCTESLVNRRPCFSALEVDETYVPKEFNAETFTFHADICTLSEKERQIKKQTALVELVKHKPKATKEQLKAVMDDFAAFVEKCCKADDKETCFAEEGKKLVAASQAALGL

[γ-(6-aminohexyl)folic acid]-chlorin e6 [chlorin e6 conjugate]
binding constant κCB with protein: 1.2e+06 M⁻¹
